Values of other authors in patent US8859624B2, “Stable rasagiline composition” (Chongqing Pharmaceutical Research Institute Co., Ltd., priority 2009, dated 2014).

Details: taking food after oral administration

- decrease of blood drug concentration: 60%
Compound: C#CCN[C@@H]1CCc2ccccc21 [Rasagiline, rasagiline]
